Like-named read-outs stand apart in the source and are kept apart here. Where only a bound is given, the exact number is not on record here.

Assay [1] has as its system AEA cellular uptake, U937 cells. The assay is described as follows: [3H]-AEA cellular uptake inhibition in U937 cells. The format is cell-based. Conditions: for IC50: U937 cells. As to the method: [^3H]-AEA Cellular Uptake
Screening for AEA cellular uptake inhibition was performed in a semi-automated procedure: Pipetting and washing steps were performed by a Biomek3000 laboratory workstation. First, required amounts of U937 cells were centrifuged at 100×g for 5 min and resuspended in RPMI (37° C.) to a final concentration of 2×10^6 cells/mL. Then, 250 μL of cell suspension (0.5×10^6 cells per sample) were transferred into AquaSil™ silanized glass vials (Chromacol 1.1-MTV) in 96-well format. After addition of 5 μL vehicle (DMSO) or compounds the cells were incubated at 37° C. for 15 min. As positive controls OMDM-2 and UCM707 were used at 10 μM in each run. The ETI-T compounds were measured at up to 7 concentrations in triplicates from 100 pM-100 μM. After pre-incubation, a mixture of 0.5 nM[ethanolamine-1-^3H]-AEA, (60 Ci/mmol) and 99.5 nM of cold AEA (final 100 nM) was added and samples were incubated at 37° C. for another 15 min. The reaction was stopped by rapid filtration over UniFilter-96 GF/C filters (PerkinElmer) pre-soaked with PBS 0.25% BSA. Cells were washed three times with 100 μL ice-cold PBS buffer containing 1% fatty acid free BSA. After drying, 45 μL MicroScint 20 scintillation cocktail (PerkinElmer, Waltham, Mass., US) was added to the wells and the plate was sealed. Radioactivity was measured by liquid scintillation counting on a PerkinElmer Wallac Trilux MicroBeta 1450 during 2 min. Non-specific binding of [^3H]AEA (100 nM) to the glass vials was never higher than 10%. IC50 values were calculated by GraphPad® by non-linear regression using the built-in log(inhibitor) vs. response-variable slope (four parameters) function.
(§1) Statistical analysis and IC50 values were determined using GraphPad® Prism 5.0 (GraphPad® Software, San Diego, Calif., US). Inhibition curves were obtained by non-linear regression using the built-in log(inhibitor) vs. response-variable slope (four parameters) function. Results were calculated as % of vehicle control of the corresponding fraction (cells, aqueous phase) if not mentioned else. In vivo results are shown in absolute values and were analyzed by a one-way ANOVA following a Tukey's multiple comparison test or student's t-test. If not indicated else the results were compared vs. vehicle (CTRL). *** P<0.001, ** P<0.01, * P<0.05, ns=not significant P>0.05.

Another assay addresses hCB1 receptor (Homo sapiens (Human), UniProt P21554). The assay is described as follows: Radioligand CB receptor binding, [3H]-CP55,940 displacement on CHO-K1 hCB1 membranes. Conditions: for CB1 receptor binding (%) at 10 µM: Table 4; for CB1 receptor binding % binding at 10 μM: Table 3. On the procedure:
Stably transfected CHO-K1 cells expressing hCB1 or hCB2 receptors (Gertsch et al., 2008, Proc Natl Acad Sci 105, 9099-104) were cultured in T150 cm^2 flasks up to 90% confluence. The medium was removed and cells were washed twice with PBS, 37° C. 10 mL of PBS was added and the cells were scraped and transferred into a falcon tube following homogenization by a Polytron PT1300D for 5 min at 30 krpm. Then, the homogenate was centrifuged (1400×g, 5 min) to remove debris. The supernatant was subjected to ultracentrifugation (64000×g, 45 min, 4° C.) to separate cytosolic from the membrane fraction. The supernatant was discharged and the pellet resuspended in PBS by sonication. Protein quantity was determined by BCA assay (Thermo Scientific) and aliquots of 500 μL were stored at −80° C. until use.
Radioligand CB Receptor Binding
Binding properties of ETI-T compounds to hCB1 or hCB2 receptors were performed as previously reported in a [^3H]-CP55,940 displacement assay (Gertsch et al., 2008, Proc Natl Acad Sci 105, 9099-104). WIN 55,212-2 was used as positive control. In brief, 20 μg protein of CHO-K1 hCB1 or hCB2 membrane preparations were thawed on ice and resuspended in a final volume of 500 μL binding buffer (50 mM Tris-HCl, 2.5 mM EDTA, 5 mM MgCl2, 0.5% fatty acid free BSA, pH 7.4) in silanized glass vials. [^3H]-CP55,940 (168 Ci/mmol) (PerkinElmer, Waltham, Mass., US) was added to a final concentration of 0.5 nM followed by the addition of competitors or vehicle in 5 μL DMSO. Membrane binding was equilibrated for 2 h at room temperature (25° C.). Samples were filter through a 0.1% polyethylenimine pre-soaked UniFilter®-96 GF/B plate (PerkinElmer) and washed twelve times with 167 μL ice-cold assay-buffer. The plate was dried, bottom sealed and 45 μL MicroScint 20 scintillation cocktail (PerkinElmer) were added before measured on a PerkinElmer 1450 Microbeta TRILUX liquid scintillation counter. Unspecific binding was determined by WIN 55,212-2, 10 μM and subtracted from all values. […].

Another assay addresses FAAH (Homo sapiens (Human), UniProt O00519). Description: FAAH activity: hydrolysis of [3H]-AEA in U937 cell homogenates. The format is biochemical. Conditions: for IC50: U937 cell homogenate, read-out: FAAH inhibition IC50. On the procedure:
Hydrolysis of [^3H]-AEA by FAAH was determined as previously described in cell homogenates of U937 cells (0.18 mg protein) (Omeir et al., 1999, Biochem Biophys Res Commun, 264, 316-20; Mor et al., 2004, J Med Chem, 47, 4998-5008). Protein amounts of cell homogenates corresponded to 0.5×10^6 cells (U937), to assure best possible comparability of IC50 values as used for the AEA cellular uptake assays. URB597 was used as positive control. Protein quantification was performed using a BCA assay (Thermo Scientific). Enzyme activity was assessed by addition of vehicle or compounds in 10 μL DMSO to 490 μL homogenate in 10 mM Tris HCl, 1 mM EDTA, 0.1% (w/v) BSA fatty acid free, pH=8 and incubation for 15 min at 37° C. After, a mixture of AEA plus [ethanolamine-1-^3H]-AEA (0.5 nM) at final 100 nM was added to the homogenates and incubated for 15 min at 37° C. The reaction was stopped by addition of 1 mL ice-cold CHCl3:MeOH (1:1) followed by vigorous vortexing. Phase separation was achieved by centrifugation at 10′000×g at 4° C. for 10 min. Radioactivity of the separated aqueous phase (upper phase) containing [^3H-ethanolamine] or [^3H-glycerol] was measured by liquid scintillation counting on a Tri-Carb 2100 TR liquid scintillation analyzer after addition of 3.5 mL Ultima Gold scintillation cocktail (PerkinElmer Life Sciences). Results are expressed as hydrolysis of tritium substrate in percent of vehicle treated control. IC50 values were calculated by GraphPad®. Data are reported as means of n=3 independent experiments performed in triplicates.
as §1

Another assay addresses CB1 receptor. Conditions: literature values of reference substances; cited from earlier work.
Where [2] appears, read: Homo sapiens, U-937, Table 1, 100 nM AEA, read-out: AEA uptake inhibition IC50.
[3] abbreviates: Homo sapiens, U-937, Table 4, read-out: AEA uptake IC50.

hCB1 receptor, sequence (P21554 whole entry): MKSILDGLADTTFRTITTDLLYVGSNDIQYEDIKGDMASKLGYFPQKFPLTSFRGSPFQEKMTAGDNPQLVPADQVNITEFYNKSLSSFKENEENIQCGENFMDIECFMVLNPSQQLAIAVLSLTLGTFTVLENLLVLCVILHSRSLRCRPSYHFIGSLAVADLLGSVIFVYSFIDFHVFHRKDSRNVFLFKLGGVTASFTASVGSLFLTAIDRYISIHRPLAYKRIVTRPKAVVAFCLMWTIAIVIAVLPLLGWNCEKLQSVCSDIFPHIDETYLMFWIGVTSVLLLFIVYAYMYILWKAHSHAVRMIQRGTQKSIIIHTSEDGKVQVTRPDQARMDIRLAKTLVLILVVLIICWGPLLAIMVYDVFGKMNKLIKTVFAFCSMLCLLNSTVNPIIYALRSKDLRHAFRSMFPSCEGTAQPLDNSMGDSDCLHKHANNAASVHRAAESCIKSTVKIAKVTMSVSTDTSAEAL
FAAH, sequence (O00519 whole entry): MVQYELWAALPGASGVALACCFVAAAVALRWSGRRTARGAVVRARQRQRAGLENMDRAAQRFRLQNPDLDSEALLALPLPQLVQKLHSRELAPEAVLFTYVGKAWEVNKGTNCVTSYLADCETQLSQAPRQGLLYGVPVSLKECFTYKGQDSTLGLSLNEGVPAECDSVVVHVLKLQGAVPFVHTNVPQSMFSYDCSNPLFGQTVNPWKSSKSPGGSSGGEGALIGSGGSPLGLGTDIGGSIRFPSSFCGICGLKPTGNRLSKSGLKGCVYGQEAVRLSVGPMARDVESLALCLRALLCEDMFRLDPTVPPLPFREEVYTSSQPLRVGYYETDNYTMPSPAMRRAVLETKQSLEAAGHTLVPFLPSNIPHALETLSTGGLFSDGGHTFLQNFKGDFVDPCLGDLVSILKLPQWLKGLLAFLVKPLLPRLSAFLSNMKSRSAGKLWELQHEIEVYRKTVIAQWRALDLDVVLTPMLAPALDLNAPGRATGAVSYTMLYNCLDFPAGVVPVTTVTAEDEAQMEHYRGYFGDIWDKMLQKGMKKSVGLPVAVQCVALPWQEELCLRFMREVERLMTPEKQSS

In the case of `Cc1ccc(/N=C2\S/C(=C\c3ccc(O)cc3)C(=O)N2c2ccc(C)cc2)cc1` [Compound 1], the IC50 in assay [1] (setting [2]) and in assay [1] (setting [3]) was 68 nM throughout. The compound also gave a CB1 receptor binding (%) at 10 µM on hCB1 receptor of 33%.

Regarding `CCOc1cc(/C=C2\S/C(=N\c3ccc(F)cc3)N(c3ccc(F)cc3)C2=O)ccc1O` [Compound 2], the IC50 in assay [1] (setting [2]) was determined as 74 nM; in assay [1] (setting [3]) it was 74 nM; on FAAH (Table 2), 56200 nM; on FAAH (Table 4) it was 56200 nM. For the same compound, in assay [1] (ratio of FAAH IC50 to AEA uptake IC50), the “apparent selectivity for AEA uptake inhibition over FAAH inhibition” value is given as about 760 fold. At FAAH, the “FAAH inhibition (in words)” value was “Lack of FAAH inhibition”. Besides, on hCB1 receptor, the “CB1 receptor binding % binding at 10 μM” value is 33%. The CB1 receptor binding (%) at 10 µM at hCB1 receptor is 33%.

Consider `CCCN1C(=O)/C(=C/c2ccc(N(C)C)cc2)S/C1=N\c1ccccc1` [Compound 10], for which the IC50 in assay [1] (setting [2]) was found to be 355 nM; in assay [1] (setting [3]) it was 355 nM; at FAAH (Table 4), 1050 nM. For the same compound, the CB1 receptor binding (%) at 10 µM at hCB1 receptor turned out to be 29%.

As for `CCOc1cc(/C=C2\S/C(=N\c3ccc(C)cc3)N(c3ccc(C)cc3)C2=O)ccc1O` [Compound 12], the IC50 is 484 nM in assay [1] (setting [2]), 484 nM in assay [1] (setting [3]) and over 100000 nM at FAAH (Table 2). The “CB1 receptor binding % binding at 10 μM” value on hCB1 receptor is 35%. The same compound returned a CB1 receptor binding (%) at 10 µM on hCB1 receptor of 35%.

For `C=CCc1cc(/C=C2\S/C(=N\c3ccc(C(=O)OC)cc3)N(C)C2=O)cc(OCC)c1O` [Compound 16], the IC50 was 571 nM in assay [1] (setting [2]), 571 nM in assay [1] (setting [3]) and over 100000 nM at FAAH (Table 2). Also, the “CB1 receptor binding % binding at 10 μM” value at hCB1 receptor was 15%. For the same compound, the CB1 receptor binding (%) at 10 µM on hCB1 receptor worked out at 15%.

On to `Cc1ccc(/N=C2\S/C(=C\c3ccc(O)c(Cl)c3)C(=O)N2c2ccc(C)c(Cl)c2)cc1Cl` [Compound 21], for which the IC50 in assay [1] (setting [2]) is 798 nM; in assay [1] (setting [3]), 798 nM; at FAAH (Table 4), 58900 nM. The CB1 receptor binding (%) at 10 µM on hCB1 receptor was 45%.

With `C/C=C/c1cc(/C=C2\S/C(=N\c3ccccc3)N(CCOC)C2=O)cc(OCC)c1O` [Compound 22], the values for the IC50 (in assay [1] (setting [2]); in assay [1] (setting [3]); at FAAH (Table 4)) were 899 nM, 899 nM and over 100000 nM, respectively. For the same compound, on hCB1 receptor, the CB1 receptor binding (%) at 10 µM is 34%.

Regarding `COc1cc(/C=C2\S/C(=N\c3ccc(C)cc3)N(c3ccc(C)cc3)C2=O)ccc1O` [ETI-T-008 Jspg], the values for the IC50 (in assay [1] (setting [3]); on FAAH (Table 4)) were 1250 nM and 5370 nM, respectively.

Turning to `CN(C)c1ccc(/C=C2\S/C(=N\c3ccccc3)N(C3CCCCC3)C2=O)cc1` [ETI-T-385], the results for the IC50 (in assay [1] (setting [3]); at FAAH (Table 4)) were 1080 nM and 985 nM, respectively. The same compound registered a CB1 receptor binding (%) at 10 µM on hCB1 receptor of 40%.

As for `C=CCc1cc(/C=C2/S/C(=N/c3ccc(C)cc3)N(C)C2=O)cc(OCC)c1O` [ETI-T-399], the IC50 in assay [1] (setting [3]) was 1320 nM. The CB1 receptor binding (%) at 10 µM at hCB1 receptor was found to be 41%.

`CCCCN1C(=O)/C(=C/c2cc(Br)c(O)c(OCC)c2)S/C1=N\c1ccccc1` [ETI-T-401]: in assay [1] (setting [3]), the IC50 is 1580 nM. The compound also came in with a CB1 receptor binding (%) at 10 µM at hCB1 receptor of 42%.

For `CCCN1C(=O)/C(=C/c2ccc3c(c2)OCO3)S/C1=N\c1ccc(OC)cc1` [ETI-T-426], the IC50 in assay [1] (setting [3]) is 1460 nM. The compound also registered a CB1 receptor binding (%) at 10 µM on hCB1 receptor of 60%.

On to `CCCCCCCC/C=C\CCCCCCCC(=O)N[C@@H](CO)c1ccc(O)cc1` [OMDM-2, (R)—N-(1-(4-hydroxyphenyl)-2-hydroxyethyl)oleamide, reference compound], for which the IC50 in assay [1] (setting [2]) amounted to 3900 nM. The Ki at CB1 receptor was 5100 nM.

Turning to `CCCCC/C=C\C/C=C\C/C=C\C/C=C\CCCC(=O)NCc1ccoc1` [UCM707, N-(3-furanylmethyl)-(5Z,8Z,11Z,14Z)-eicosatetraenamide, reference compound], the IC50 was 1900 nM in assay [1] (Table 1, 100 nM AEA, read-out: AEA uptake inhibition IC50) and 8300 nM on FAAH (Table 2). Also, the Ki at CB1 receptor is over 1000 nM.

The IC50 is the concentration that inhibits the measured activity by half. Usually Ki stands for the dissociation constant of the complex between target and ligand, obtained from inhibition or displacement.

The values are drawn from patent US10300048B2, “Thiazolidinones as cellular anandamide uptake inhibitors and their use in the treatment of psychiatric or neurological disorders and inflammation, in particular neuroinflammation” (UNIVERSITAT BERN, priority 2014, dated 2019).
